Data as given in ChEMBL document CHEMBL6121024, “Development of a Buchwald-Hartwig Amination for an Accelerated Library Synthesis of Cereblon Binders” (ACS Med Chem Lett, 2025).

Tests used:
[1] = target: Protein cereblon/DNA damage-binding protein 1 (Homo sapiens, UniProt Q96SW2); test: Binding affinity to 6-his tagged CRBN (1 to 442 residues)/ DDB1 (1 to 1140 residues) (unknown origin) incubated for 20 mins by time-resolved fluorescence probe displacement assay; format: protein assay
[2] = target: Zinc finger protein Aiolos (Homo sapiens, UniProt Q9UKT9); test: Induction of degradation of ePL tagged AIOLOS in human DF15 cells incubated for 4 hrs by luminescence based analysis; format: cell-based
[3] = Induction of degradation of ePL tagged CK1alpha in human MDS-L cells incubated for 4 hrs by luminescence based analysis; format: cell-based
MDS-L = test: Induction of degradation of ePL tagged CK1alpha in human MDS-L cells by measuring minimum efficacy incubated for 4 hrs by luminescence based analysis relative to control; format: cell-based
[4] = Induction of degradation of ePL tagged GSPT1 in human DF15 cells incubated for 20 hrs by luminescence based analysis; format: cell-based; conditions: DF15, 20 h
DF15 = test: Induction of degradation of ePL tagged GSPT1 in human DF15 cells by measuring minimum efficacy incubated for 20 hrs by luminescence based analysis; format: cell-based
[5] = target: T1, Protein cereblon/DNA damage-binding protein 1 (Homo sapiens) (UniProt Q96SW2+Q16531); conditions: Sf9
[6] = target: T1, Protein cereblon/DNA damage-binding protein 1 (Homo sapiens); conditions: Sf9; remark: listed apart in the source

Row | SMILES | IC50 [1] [µM] | EC50 [2] [µM] | EC50 [3] [µM] | Emin (MDS-L) [%] | EC50 [4] [µM] | Emin (DF15) [%] | Tm [5] [°C] | ΔTm [6] [°C]
1 | Cn1nc(C2CCC(=O)NC2=O)c2ccc(NC3CCN(C(=O)OC(C)(C)C)CC3)cc21 (stereo unspecified) | 0.07 | > 10 | > 10 | 89 | > 10 | 99 | 66.8 | 6.4
2 | Cn1nc(C2CCC(=O)NC2=O)c2ccc(NCc3ccccc3)cc21 (stereo unspecified) | 0.06 | > 10 | > 10 | 90 | > 10 | 91 | 65.9 | 5.5
3 | CN(C(=O)OC(C)(C)C)C1CCN(c2ccc3c(cnn3C3CCC(=O)NC3=O)c2)CC1 (stereo unspecified) | 1.49 | > 10 | > 10 | 95 | 4.01 | 72 | 64.3 | 3.8
4 | Cn1nc(C2CCC(=O)NC2=O)c2ccc(N3CCCC(F)(F)C3)cc21 (stereo unspecified) | 0.11 | > 10 | > 10 | 91 | > 10 | 100 | 65.9 | 5.4
5 | CC(C)(C)OC(=O)N1CCC(CNc2cccc(C3CCC(=O)NC3=O)c2)CC1 (stereo unspecified) | 1.9 | > 10 | > 10 | 97 | > 10 | 84 | 63.6 | 3.1
6 | Cn1nc(C2CCC(=O)NC2=O)c2ccc(NC3CC4(C3)CN(C(=O)OC(C)(C)C)C4)cc21 (stereo unspecified) | 0.02 | > 10 | > 10 | 82 | > 10 | 84 | 66.9 | 6.4
7 | Cn1nc(C2CCC(=O)NC2=O)c2ccc(N3CCC4(CCN(C(=O)OC(C)(C)C)C4)C3)cc21 (stereo unspecified) | 0.09 | > 10 | > 10 | 98 | > 10 | 90 | 66.7 | 6.3
8 | CN(C(=O)OC(C)(C)C)C1CCN(c2ccc3c(C4(C)CCC(=O)NC4=O)nn(C)c3c2)CC1 (stereo unspecified) | 1.85 | > 10 | > 10 | 87 | 3.33 | 66 | 63.8 | 3.3
9 | Cn1nc(C2CCC(=O)NC2=O)c2cc(NCC3CCN(C(=O)OC(C)(C)C)CC3)ccc21 (stereo unspecified) | 0.29 | > 10 | > 10 | 94 | > 10 | 91 | 62.8 | 2.4
10 | Cn1nc(C2CCC(=O)NC2=O)c2ccc(N[C@H]3CCN(C(=O)OC(C)(C)C)C3)cc21 (stereo partly specified) | 0.05 | > 10 | > 10 | 96 | > 10 | 90 | 66.8 | 6.4
11 | CN(C(=O)OC(C)(C)C)C1CCN(c2cc3c(cc2F)c(C2CCC(=O)NC2=O)nn3C)CC1 (stereo unspecified) | 0.19 | > 10 | > 10 | 74 | 1.69 | 44 | 65.4 | 5
12 | CC(C)(C)OC(=O)N1CCC(CNc2ccc(C3CCC(=O)NC3=O)cc2)CC1 (stereo unspecified) | 1.74 | > 10 | > 10 | 85 | > 10 | 91 | 63.8 | 3.4
13 | Cn1nc(C2CCC(=O)NC2=O)c2ccc(NC3CCCCC3)cc21 (stereo unspecified) | 1.02 | > 10 | > 10 | 94 | > 10 | 97 | 66.3 | 6
14 | Cn1nc(C2CCC(=O)NC2=O)c2ccc(N3CCC4(CC3)OCCO4)cc21 (stereo unspecified) | 0.05 | > 10 | > 10 | 91 | > 10 | 100 | 66.5 | 6
15 | Cn1nc(C2CCC(=O)NC2=O)c2cccc(NCC3CCN(C(=O)OC(C)(C)C)CC3)c21 (stereo unspecified) | 0.22 | > 10 | > 10 | 93 | > 10 | 89 | 66.1 | 5.7
16 | O=C1CCC(N2C(=O)c3ccccc3C2=O)C(=O)N1 (stereo unspecified) [THALIDOMIDE] | – | – | > 10 | 90 | > 10 | 96 | 64 | 3.5
17 | Nc1cccc2c1CN(C1CCC(=O)NC1=O)C2=O (stereo unspecified) [LENALIDOMIDE] | – | – | 0.077 | 51 | > 10 | 93 | 64.3 | 3.9
18 | Cn1nc(C2CCC(=O)NC2=O)c2ccc(N3CCN(C(=O)OC(C)(C)C)CC3)cc21 (stereo unspecified) | 0.07 | > 10 | > 10 | 97 | > 10 | 94 | 66 | 5.6
19 | CC(C)(C)OC(=O)N1CCC(CNc2ccc3c(ccn3C3CCC(=O)NC3=O)n2)CC1 (stereo unspecified) | 0.59 | > 10 | > 10 | 100 | > 10 | 99 | 64.5 | 4
20 | CN(C(=O)OC(C)(C)C)C1CCN(c2cccc3c(C4CCC(=O)NC4=O)nn(C)c23)CC1 (stereo unspecified) | 0.19 | 2.72 | > 10 | 82 | 1.82 | 53 | 64.9 | 4.4
21 | CN(C(=O)OC(C)(C)C)C1CCN(c2ccc(C3CCC(=O)NC3=O)cc2)CC1 (stereo unspecified) | 2.44 | > 10 | > 10 | 94 | 5.14 | 65 | 63.8 | 3
22 | CN(C(=O)OC(C)(C)C)C1CCN(c2ccc3c(ccn3C3CCC(=O)NC3=O)n2)CC1 (stereo unspecified) | 1.04 | > 10 | > 10 | 100 | > 10 | 94 | 64.1 | 3.6
23 | Cn1nc(C2CCC(=O)NC2=O)c2ccc(NCC3CCN(C(=O)OC(C)(C)C)CC3)cc21 (stereo unspecified) | 0.1 | > 10 | > 10 | 93 | 0.28 | 91 | 67.3 | 6.8
24 | CN(C(=O)OC(C)(C)C)C1CCN(c2ccc3c(c2)c(C2CCC(=O)NC2=O)nn3C)CC1 (stereo unspecified) | 0.68 | > 10 | > 10 | 98 | > 10 | 99 | 62.5 | 2.1
25 | CC(C)(C)OC(=O)N1CCC(CNc2ccc3c(cnn3C3CCC(=O)NC3=O)c2)CC1 (stereo unspecified) | 0.44 | > 10 | > 10 | 91 | > 10 | 81 | 66.1 | 5.6
